Reference: PubChem BioAssay (NCI)
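These data come from cells grown in 96-well plates and exposed to compound for 48 hours at five concentrations. At the GI50, growth is halved. TGI is the concentration that stops growth completely.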

Experiments:
Test in all cases: NCI-60 cell line screen, 48 h
OVCAR-8 ovarian = tested on: OVCAR-8 ovarian
K-562 leukemia = tested on: K-562 leukemia
HCT-15 colon = tested on: HCT-15 colon
SF-295 CNS = tested on: SF-295 CNS
UACC-62 melanoma = tested on: UACC-62 melanoma
RXF 393 renal = tested on: RXF 393 renal
SK-MEL-2 melanoma = tested on: SK-MEL-2 melanoma
M14 melanoma = tested on: M14 melanoma

| Compound | GI50 (OVCAR-8 ovarian) | TGI (OVCAR-8 ovarian) | GI50 (K-562 leukemia) | TGI (K-562 leukemia) | GI50 (HCT-15 colon) | TGI (HCT-15 colon) | GI50 (SF-295 CNS) | TGI (SF-295 CNS) | GI50 (UACC-62 melanoma) | TGI (UACC-62 melanoma) | GI50 (RXF 393 renal) | TGI (RXF 393 renal) | GI50 (SK-MEL-2 melanoma) | TGI (SK-MEL-2 melanoma) | TGI (M14 melanoma) | GI50 (M14 melanoma) |
| --- | --- | --- | --- | --- | --- | --- | --- | --- | --- | --- | --- | --- | --- | --- | --- | --- |
| CC(C)(C)OC(=O)CN1CCc2c(sc3ncnc(N/N=C/c4cccc5ccccc45)c23)C1 | 2580 nM | > 33.3 µM | 1080 nM | > 33.3 µM | 2200 nM | 9.57 µM | 4.41 µM | 10.2 µM | 1320 nM | 5.48 µM | 1560 nM | 6.93 µM | 5 µM | 12.3 µM | – | – |
| O=C(O)c1cscc1Cc1cccs1 | – | > 100 µM | – | > 100 µM | – | > 100 µM | – | > 100 µM | – | > 100 µM | – | > 100 µM | – | > 100 µM | > 100 µM | – |
| CN1CCN(c2ccc(NC3=C(Cl)C(=O)c4ncccc4C3=O)cc2C#N)CC1 | 2590 nM | 9.37 µM | 312 nM | > 100 µM | 1640 nM | 3.53 µM | 15 µM | 28.8 µM | 1780 nM | 3.61 µM | 1400 nM | 2.73 µM | 2.26 µM | 4.69 µM | 3.57 µM | 1740 nM |
| C[C@]12C3CC[C@@]4(CO)C[C@]3(CCC1[C@](C)(C(=O)O)CC[C@@H]2O)CC4=O (stereo partly specified) | > 100000 nM | > 100 µM | > 100000 nM | > 100 µM | > 100000 nM | > 100 µM | > 100 µM | > 100 µM | > 100000 nM | > 100 µM | > 100000 nM | > 100 µM | > 100 µM | > 100 µM | > 100 µM | > 100000 nM |
| CCCCCCC#CC#Cc1cccc(=O)o1 | 1140 nM | 5.47 µM | 7330 nM | > 100 µM | 1670 nM | 3.64 µM | 6.75 µM | 22.4 µM | 1450 nM | 2.86 µM | 1720 nM | 4.65 µM | 9.27 µM | > 100 µM | 2.8 µM | 878 nM |
| NC(=S)N/N=C\c1nccc2c(N)cccc12 | 222 nM | – | 497 nM | > 100 µM | 426 nM | > 100 µM | 0.309 µM | 3.81 µM | 264 nM | 1.94 µM | 248 nM | 17.1 µM | 2.79 µM | > 100 µM | 0.317 µM | 153 nM |
| C=CCC(N[C@H](CO)c1ccccc1)c1cn(S(=O)(=O)c2ccc(C)cc2)c2ccccc12 (stereo partly specified) | 10800 nM | 29.5 µM | 2720 nM | – | 23700 nM | 60.2 µM | 8.19 µM | 34.8 µM | 15100 nM | 29.7 µM | – | – | 32.2 µM | > 100 µM | 31.5 µM | 14500 nM |
| COc1ccc2c(c1)cn1c3ccc(O)cc3[nH]c(=O)c21 | 428 nM | 2.82 µM | – | – | 111 nM | 2.21 µM | 0.248 µM | 3.52 µM | 151 nM | 6.02 µM | 59.2 nM | 0.627 µM | 0.215 µM | 2.08 µM | 1.21 µM | 98.4 nM |
| O=C(Nc1ccc(Cl)cc1)c1cc(S(=O)(=O)Nc2nnc(-c3ccccc3)c(-c3ccccc3)n2)c(SCc2ccccc2)cc1Cl | 31800 nM | > 71 µM | 25000 nM | > 100 µM | 32800 nM | > 64.2 µM | 19 µM | 41.5 µM | 18200 nM | 39.7 µM | 896 nM | > 57.7 µM | 41.3 µM | > 100 µM | 51.6 µM | 21200 nM |
| Cc1cc(C)c2c(SCc3ccc(Cl)cc3Cl)nc(N)nc2n1 | – | > 100 µM | – | 97.1 µM | – | > 100 µM | – | > 100 µM | – | > 100 µM | – | > 100 µM | – | > 100 µM | > 100 µM | – |
| Oc1c(I)cc(-c2nc3ccccc3s2)cc1CN(Cc1ccccn1)Cc1ccccn1 | 335 nM | 37.5 µM | 385 nM | > 100 µM | 379 nM | > 100 µM | 0.35 µM | > 100 µM | 207 nM | 0.563 µM | 1080 nM | 5.61 µM | 0.362 µM | 17.8 µM | 13.1 µM | 357 nM |
| COC(=O)OCc1ccc2c(c1)C(=O)c1c-2n(CCCBr)c(=O)c2cc([N+](=O)[O-])ccc12 | > 100000 nM | > 100 µM | – | – | > 100000 nM | > 100 µM | 31.7 µM | > 100 µM | 33500 nM | > 100 µM | 160 nM | 8.45 µM | > 100 µM | > 100 µM | – | – |
| COC(=O)C1(C2CC/C(C)=C/CC/C(C)=C/CC[C@@]3(C)O[C@@H]3C2)CC1 (stereo partly specified) | > 44300 nM | > 65.1 µM | 29100 nM | 99.6 µM | > 66700 nM | > 100 µM | > 60.4 µM | > 100 µM | > 100000 nM | > 100 µM | > 38200 nM | > 100 µM | > 100 µM | > 100 µM | > 72.2 µM | 37500 nM |
| Cc1cccc2c1O/C(=C\c1ccc([N+](=O)[O-])o1)C2=O | 941 nM | 7.93 µM | 296 nM | 1.12 µM | 274 nM | 0.998 µM | 2 µM | 6.46 µM | 1260 nM | 2.72 µM | 1240 nM | 2.83 µM | 1.76 µM | 3.52 µM | 3.21 µM | 1430 nM |
| CCOc1ccc2ccc3cccnc3c2n1 | – | > 100 µM | – | > 100 µM | – | > 100 µM | – | > 100 µM | – | 75.9 µM | – | > 100 µM | – | > 100 µM | > 100 µM | – |
| O=C(O)c1cc(Cc2ccc(O)c(C(=O)O)c2)ccc1O (tested in a mixture with another compound) | 2410 nM | 6.26 µM | 2380 nM | > 100 µM | 3350 nM | 17 µM | 0.592 µM | 2.9 µM | 4730 nM | 19.9 µM | 250 nM | 1.37 µM | – | – | 21.8 µM | 5280 nM |
| CCc1c(O)c2c(c(O)c1C(C)=O)C(=O)c1c(cc(O)c(C(=O)O)c1C(=O)O)C2=O | – | > 100 µM | – | > 100 µM | – | > 100 µM | – | > 100 µM | – | > 100 µM | – | > 100 µM | – | > 100 µM | > 100 µM | – |
